Results: ChEMBL document CHEMBL4613211, “Aurone: A biologically attractive scaffold as anticancer agent” (Eur J Med Chem, 2019)

Columns and labels:
[1] = system: UACC-62; test: Growth inhibition of human UACC62 cells at 10 uM after 48 hrs by sulforhodamine B assay relative to control; format: functional; conditions: UACC-62, 48 h, read-out: GI
[2] = system: NCI-H322M; test: Growth inhibition of human NCI-H322M cells at 10 uM after 48 hrs by sulforhodamine B assay relative to control; format: functional; conditions: read-out: GI
[3] = system: SF-268; test: Growth inhibition of human SF268 cells at 10 uM after 48 hrs by sulforhodamine B assay relative to control; format: functional; conditions: SF-268, 48 h, read-out: GI
[4] = system: NCI-H522; test: Growth inhibition of human NCI-H522 cells at 10 uM after 48 hrs by sulforhodamine B assay relative to control; format: functional; conditions: NCI-H522, 48 h, read-out: GI
[5] = system: MOLT-4; test: Growth inhibition of human MOLT4 cells at 10 uM after 48 hrs by sulforhodamine B assay relative to control; format: functional; conditions: MOLT-4, 48 h, read-out: GI
[6] = system: SK-MEL-5; test: Growth inhibition of human SK-MEL-5 cells at 10 uM after 48 hrs by sulforhodamine B assay relative to control; format: functional; conditions: SK-MEL-5, 48 h, read-out: GI
[7] = system: MDA-MB-231; test: Growth inhibition of human MDA-MB-231 cells at 10 uM after 48 hrs by sulforhodamine B assay relative to control; format: functional; conditions: MDA-MB-231, 48 h, read-out: GI
[8] = system: T47D; test: Growth inhibition of human T47D cells at 10 uM after 48 hrs by sulforhodamine B assay relative to control; format: functional; conditions: read-out: GI
[9] = system: OVCAR-8; test: Growth inhibition of human OVCAR8 cells at 10 uM after 48 hrs by sulforhodamine B assay relative to control; format: functional; conditions: OVCAR-8, 48 h, read-out: GI
[10] = system: RPMI-8226; test: Growth inhibition of human RPMI8226 cells at 10 uM after 48 hrs by sulforhodamine B assay relative to control; format: functional; conditions: RPMI-8226, 48 h, read-out: GI
[11] = system: SW-620; test: Growth inhibition of human SW620 cells at 10 uM after 48 hrs by sulforhodamine B assay relative to control; format: functional; conditions: SW-620, 48 h, read-out: GI
[12] = system: HCC 2998; test: Growth inhibition of human HCC2998 cells at 10 uM after 48 hrs by sulforhodamine B assay relative to control; format: functional; conditions: HCC 2998, 48 h, read-out: GI
[13] = system: SK-OV-3; test: Growth inhibition of human SKOV3 cells at 10 uM after 48 hrs by sulforhodamine B assay relative to control; format: functional; conditions: SK-OV-3, 48 h, read-out: GI
[14] = system: OVCAR-4; test: Growth inhibition of human OVCAR4 cells at 10 uM after 48 hrs by sulforhodamine B assay relative to control; format: functional; conditions: OVCAR-4, 48 h, read-out: GI
[15] = system: UACC-257; test: Growth inhibition of human UACC257 cells at 10 uM after 48 hrs by sulforhodamine B assay relative to control; format: functional; conditions: UACC-257, 48 h, read-out: GI
[16] = system: SNB-19; test: Growth inhibition of human SNB19 cells at 10 uM after 48 hrs by sulforhodamine B assay relative to control; format: functional; conditions: SNB-19, 48 h, read-out: GI
[17] = system: K562; test: Growth inhibition of human K562 cells at 10 uM after 48 hrs by sulforhodamine B assay relative to control; format: functional; conditions: K562, 48 h, read-out: GI
[18] = system: HOP-92; test: Growth inhibition of human HOP92 cells at 10 uM after 48 hrs by sulforhodamine B assay relative to control; format: functional; conditions: HOP-92, 48 h, read-out: GI
[19] = system: EKVX; test: Growth inhibition of human EKVX cells at 10 uM after 48 hrs by sulforhodamine B assay relative to control; format: functional; conditions: read-out: GI
[20] = system: SR; test: Growth inhibition of human SR cells at 10 uM after 48 hrs by sulforhodamine B assay relative to control; format: functional; conditions: read-out: GI
[21] = system: SF-539; test: Growth inhibition of human SF539 cells at 10 uM after 48 hrs by sulforhodamine B assay relative to control; format: functional; conditions: SF-539, 48 h, read-out: GI
[22] = system: OVCAR-5; test: Growth inhibition of human OVCAR5 cells at 10 uM after 48 hrs by sulforhodamine B assay relative to control; format: functional; conditions: OVCAR-5, 48 h, read-out: GI
[23] = system: COLO 205; test: Growth inhibition of human COLO205 cells at 10 uM after 48 hrs by sulforhodamine B assay relative to control; format: functional; conditions: COLO 205, 48 h, read-out: GI
[24] = molecular target: Cyclin-dependent kinase 2 (Homo sapiens, UniProt P24941); test: Inhibition of CDK2 (unknown origin)

| SMILES | inhibition of growth at 10 µM [1] [%] | inhibition of growth at 10 µM [2] [%] | inhibition of growth at 10 µM [3] [%] | inhibition of growth at 10 µM [4] [%] | inhibition of growth at 10 µM [5] [%] | inhibition of growth at 10 µM [6] [%] | inhibition of growth at 10 µM [7] [%] | inhibition of growth at 10 µM [8] [%] | inhibition of growth at 10 µM [9] [%] | inhibition of growth at 10 µM [10] [%] | inhibition of growth at 10 µM [11] [%] | inhibition of growth at 10 µM [12] [%] | inhibition of growth at 10 µM [13] [%] | inhibition of growth at 10 µM [14] [%] | inhibition of growth at 10 µM [15] [%] | inhibition of growth at 10 µM [16] [%] | inhibition of growth at 10 µM [17] [%] | inhibition of growth at 10 µM [18] [%] | inhibition of growth at 10 µM [19] [%] | inhibition of growth at 10 µM [20] [%] | further results |
| --- | --- | --- | --- | --- | --- | --- | --- | --- | --- | --- | --- | --- | --- | --- | --- | --- | --- | --- | --- | --- | --- |
| COc1ccc(/C=C2\Oc3c(c(OC)c4ccoc4c3CN3CCOCC3)C2=O)cc1 | 56.4 to 65.2 | 56.4 to 65.2 | 56.4 to 65.2 | 56.4 to 65.2 | 56.4 to 65.2 | 56.4 to 65.2 | 56.4 to 65.2 | 56.4 to 65.2 | 56.4 to 65.2 | 56.4 to 65.2 | 56.4 to 65.2 | 56.4 to 65.2 | 56.4 to 65.2 | 56.4 to 65.2 | 56.4 to 65.2 | 56.4 to 65.2 | 56.4 to 65.2 | 56.4 to 65.2 | 56.4 to 65.2 | 56.4 to 65.2 | inhibition of growth at 10 µM [21]: 56.4 to 65.2%; inhibition of growth at 10 µM [22]: 56.4 to 65.2%; inhibition of growth at 10 µM [23]: 56.4 to 65.2% |
| COc1ccc2c(c1)O/C(=C\c1ccc(OCC(=O)Nc3ccccc3)c(OC)c1)C2=O | 18.9 to 27.1 | 18.9 to 27.1 | 18.9 to 27.1 | 18.9 to 27.1 | 18.9 to 27.1 | 18.9 to 27.1 | 18.9 to 27.1 | 18.9 to 27.1 | 18.9 to 27.1 | 18.9 to 27.1 | 18.9 to 27.1 | 18.9 to 27.1 | 18.9 to 27.1 | 18.9 to 27.1 | 18.9 to 27.1 | 18.9 to 27.1 | 18.9 to 27.1 | 18.9 to 27.1 | 18.9 to 27.1 | 18.9 to 27.1 | inhibition of growth at 10 µM [21]: 18.9 to 27.1%; inhibition of growth at 10 µM [22]: 18.9 to 27.1%; inhibition of growth at 10 µM [23]: 18.9 to 27.1% |
| COc1cc(/C=C2\Oc3cc4occc4c(OC)c3C2=O)ccc1OCC(=O)Nc1ccccc1 | 67.1 to 79.6 | 67.1 to 79.6 | 67.1 to 79.6 | 67.1 to 79.6 | 67.1 to 79.6 | 67.1 to 79.6 | 67.1 to 79.6 | 67.1 to 79.6 | 67.1 to 79.6 | 67.1 to 79.6 | 67.1 to 79.6 | 67.1 to 79.6 | 67.1 to 79.6 | 67.1 to 79.6 | 67.1 to 79.6 | 67.1 to 79.6 | 67.1 to 79.6 | 67.1 to 79.6 | 67.1 to 79.6 | 67.1 to 79.6 | IC50 [24]: 1.11 µM; inhibition of growth at 10 µM [21]: 67.1 to 79.6%; inhibition of growth at 10 µM [22]: 67.1 to 79.6%; inhibition of growth at 10 µM [23]: 67.1 to 79.6% |
